Measurements from patent US11219215B2, “Herbicidal composition comprising cinmethylin and specific inhibitors of protoporphyrinogen oxidase” (BASF Agro B.V., priority 2015, dated 2022).
“And” between values parts separate entries of the source, which are not always exact repeats. Identical values can stand only once.

Assays:
Format in all cases: in vivo
Alopecurus myosuroides = experiment: Greenhouse preemergence herbicidal activity, ALOMY; conditions: 20 DAT
Description: (§1) The containers were irrigated gently to promote germination and growth and subsequently covered with transparent plastic hoods until the plants had rooted.
(§2) The plants have been cultivated due to their individual requirements at 10-25° C. and 20-35° C.
(§3) The plants were irrigated due to their necessity.
(§4) The racemic mixture (±)-2-exo-(2-Methylbenzyloxy)-1-methyl-4-isopropyl-7-oxabicyclo[2.2.1]heptane was used as herbicide A and formulated as emulsifiable concentrates with an active ingredient concentration of 50g/I, 100 g/I or 750 g/I respectively.
(§5) Flumioxazin (herbicide B.1) was used as a wettable powder (WP) formulation having an active ingredient concentration of 50%.
(§6) Sulfentrazone (herbicide B.2) was used as a suspension concentrate (SC) having an active ingredient concentration of 480 g/l.
(§7) In the following experiments, the herbicidal activity for the individual herbicidal compositions (solo and mixture applications) was assessed 20 days after treatment (DAT).
(§8) The evaluation for the damage on undesired weeds caused by the chemical compositions was carried out using a scale from 0 to 100%, compared to the untreated control plants. Here, 0 means no damage and 100 means complete destruction of the plants.
(§9) E=X+Y−(X·Y/100) where X=effect in percent using herbicide A at an application rate a; • Y=effect in percent using herbicide B at application rate b; • E=expected effect (in %) of herbicide A+herbicide B at application rates a+b.
(§10) The value E corresponds to the effect (plant damage or injury) which is to be expected if the activity of the individual compounds is additive. If the observed effect is higher than the value E calculated according to the Colby equation, a synergistic effect is present.

Anthemis arvensis = experiment: Greenhouse preemergence herbicidal activity, ANTAR; conditions: 20 DAT
Description: as §1, §2, §3, §4, §5, §6, §7, §8, §9, §10

Galium aparine = experiment: Greenhouse preemergence herbicidal activity, GALAP; conditions: 20 DAT
Description: as §1, §2, §3, §4, §5, §6, §7, §8, §9, §10

Geranium dissectum [1] = experiment: Greenhouse preemergence herbicidal activity, GERDI; conditions: 20 DAT
Description: as §1, §2, §3, §4, §5, §6, §7, §8, §9, §10

Lolium multiflorum = experiment: Greenhouse preemergence herbicidal activity, LOLMU; conditions: 20 DAT
Description: as §1, §2, §3, §4, §5, §6, §7, §8, §9, §10

Polygonum convolvulus = experiment: Greenhouse preemergence herbicidal activity, POLCO; conditions: 20 DAT
Description: as §1, §2, §3, §4, §5, §6, §7, §8, §9, §10

Sorghum halepense = experiment: Greenhouse preemergence herbicidal activity, SORHA; conditions: 20 DAT
Description: as §1, §2, §3, §4, §5, §6, §7, §8, §9, §10

Abutilon theophrasti = experiment: Greenhouse preemergence herbicidal activity, ABUTH; conditions: 20 DAT
Description: as §1, §2, §3, §4, §5, §6, §7, §8, §9, §10

Setaria viridis [2] = experiment: Greenhouse preemergence herbicidal activity, SETVI; conditions: 20 DAT
Description: as §1, §2, §3, §4, §5, §6, §7, §8, §9, §10

Stellaria media = experiment: Greenhouse preemergence herbicidal activity, STEME; conditions: 20 DAT
Description: as §1, §2, §3, §4, §5, §6, §7, §8, §9, §10

Avena fatua = experiment: Greenhouse preemergence herbicidal activity, AVEFA; conditions: 20 DAT
Description: as §1, §2, §3, §4, §5, §6
(§11) In the following experiments, the herbicidal activity for the individual herbicidal compositions (solo and mixture applications) was assessed 20 days after treatment (DAT). […]
as §10

Chenopodium album = experiment: Greenhouse preemergence herbicidal activity, CHEAL; conditions: 20 DAT
Description: as §1, §2, §3, §4, §5, §6, §11, §10

Digitaria sanguinalis = experiment: Greenhouse postemergence herbicidal activity, DIGSA; conditions: 20 DAT
Description: (§12) For the post emergence treatment, the plants were first grown to the 2 leaf station (GS 12). Here, the herbicidal compositions were suspended or emulsified in water as distribution medium and sprayed using finely distributing nozzles.
as §2, §3, §4, §5, §6, §7, §8, §9, §10

Geranium dissectum [3] = experiment: Greenhouse postemergence herbicidal activity, GERDI; conditions: herbicide A solo 62.5 g ai/ha, 20 DAT
Description: as §12, §2, §3, §4, §5, §6, §11, §10

Setaria viridis [4] = experiment: Greenhouse postemergence herbicidal activity, SETVI; conditions: 20 DAT
Description: as §12, §2, §3, §4, §5, §6, §11, §10

[5] = sulfentrazone solo 12.5 g ai/ha

`Cc1nn(-c2cc(NS(C)(=O)=O)c(Cl)cc2Cl)c(=O)n1C(F)F` [sulfentrazone, 2′,4′-dichloro-5′-(4-difluoromethyl-4,5-dihydro-3-methyl-5-oxo-1H-1,2,4-triazol-1-yl)methanesulfonanilide] showed a herbicidal activity (Alopecurus myosuroides; sulfentrazone solo 25 g ai/ha) of 35%, a herbicidal activity (Anthemis arvensis; [5]) of 40% and a herbicidal activity (Anthemis arvensis; sulfentrazone solo 25 g ai/ha) of 85%. For the same molecule, the herbicidal activity (Galium aparine; sulfentrazone solo 100 g ai/ha) was 98%, the herbicidal activity (Geranium dissectum [1]; sulfentrazone solo 25 g ai/ha) was 50% and the herbicidal activity (Lolium multiflorum; [5]) was 0%. The herbicidal activity (Lolium multiflorum; sulfentrazone solo 100 g ai/ha) was 80%, the herbicidal activity (Polygonum convolvulus; [5]) was 20% and the herbicidal activity (Polygonum convolvulus; sulfentrazone solo 25 g ai/ha) was 90%. The herbicidal activity (Sorghum halepense; [5]) was 0%, the herbicidal activity (Sorghum halepense; sulfentrazone solo 100 g ai/ha) was 80% and the herbicidal activity (Abutilon theophrasti; sulfentrazone solo 25 g ai/ha) was 65%. For the same molecule, the herbicidal activity (Abutilon theophrasti; sulfentrazone solo 50 g ai/ha) was 65%, the herbicidal activity (Setaria viridis [2]; [5]) was 0% and the herbicidal activity (Setaria viridis [2]; sulfentrazone solo 25 g ai/ha) was 65%. For the same molecule, the herbicidal activity (Stellaria media; [5]) was 0%, the herbicidal activity (Stellaria media; sulfentrazone solo 25 g ai/ha) was 20% and the herbicidal activity (Stellaria media; sulfentrazone solo 50 g ai/ha) was 40%.
In the case of `Cc1ccccc1CO[C@@H]1C[C@]2(C(C)C)CC[C@@]1(C)O2` (racemic) [herbicide A, (±)-2-exo-(2-Methylbenzyloxy)-1-methyl-4-isopropyl-7-oxabicyclo[2.2.1]heptane], the herbicidal activity (Avena fatua; herbicide A solo 62.5 g ai/ha) is reported as 40%, the herbicidal activity (Avena fatua; herbicide A solo 250 g ai/ha) is reported as 65% and the herbicidal activity (Alopecurus myosuroides; herbicide A solo 31.25 g ai/ha) is reported as 95%. It also gave a herbicidal activity (Alopecurus myosuroides; herbicide A solo 62.5 g ai/ha) of 98%, a herbicidal activity (Anthemis arvensis; herbicide A solo 25 g ai/ha) of 0% and a herbicidal activity (Anthemis arvensis; herbicide A solo 31.25 g ai/ha) of 0%. For the same molecule, the herbicidal activity (Anthemis arvensis; herbicide A solo 62.5 g ai/ha) was 0%, the herbicidal activity (Anthemis arvensis; herbicide A solo 125 g ai/ha) was 20% and the herbicidal activity (Chenopodium album; herbicide A solo 62.5 g ai/ha) was 45%. For the same molecule, the herbicidal activity (Chenopodium album; herbicide A solo 125 g ai/ha) was 60%, the herbicidal activity (Galium aparine; herbicide A solo 31.25 g ai/ha) was 30% and the herbicidal activity (Galium aparine; herbicide A solo 62.5 g ai/ha) was 0%. For the same molecule, the herbicidal activity (Galium aparine; herbicide A solo 125 g ai/ha) was 0%, the herbicidal activity (Galium aparine; herbicide A solo 200 g ai/ha) was 30% and the herbicidal activity (Galium aparine; herbicide A solo 500 g ai/ha) was 70%. The herbicidal activity (Geranium dissectum [1]; herbicide A solo 50 g ai/ha) was 50%, the herbicidal activity (Geranium dissectum [1]; herbicide A solo 62.5 g ai/ha) was 70% and 80% and the herbicidal activity (Geranium dissectum [1]; herbicide A solo 100 g ai/ha) was 50%. It also gave a herbicidal activity (Geranium dissectum [1]; herbicide A solo 125 g ai/ha) of 70%, a herbicidal activity (Geranium dissectum [1]; herbicide A solo 250 g ai/ha) of 70% and a herbicidal activity (Lolium multiflorum; herbicide A solo 25 g ai/ha) of 50%. For the same molecule, the herbicidal activity (Lolium multiflorum; herbicide A solo 31.25 g ai/ha) was 75%, the herbicidal activity (Lolium multiflorum; herbicide A solo 62.5 g ai/ha) was 85% and 90% and the herbicidal activity (Lolium multiflorum; herbicide A solo 125 g ai/ha) was 90%. For the same molecule, the herbicidal activity (Lolium multiflorum; herbicide A solo 500 g ai/ha) was 95%, the herbicidal activity (Polygonum convolvulus; herbicide A solo 25 g ai/ha) was 0% and the herbicidal activity (Polygonum convolvulus; herbicide A solo 50 g ai/ha) was 0%. For the same molecule, the herbicidal activity (Polygonum convolvulus; herbicide A solo 62.5 g ai/ha) was 0%, the herbicidal activity (Polygonum convolvulus; herbicide A solo 250 g ai/ha) was 45% and the herbicidal activity (Sorghum halepense; herbicide A solo 25 g ai/ha) was 90%. For the same molecule, the herbicidal activity (Sorghum halepense; herbicide A solo 62.5 g ai/ha) was 90%, the herbicidal activity (Sorghum halepense; herbicide A solo 125 g ai/ha) was 95% and the herbicidal activity (Sorghum halepense; herbicide A solo 250 g ai/ha) was 98%. For the same molecule, the herbicidal activity (Abutilon theophrasti; herbicide A solo 50 g ai/ha) was 0%, the herbicidal activity (Abutilon theophrasti; herbicide A solo 100 g ai/ha) was 0% and the herbicidal activity (Setaria viridis [2]; herbicide A solo 25 g ai/ha) was 75%. The herbicidal activity (Setaria viridis [2]; herbicide A solo 31.25 g ai/ha) was 95%, the herbicidal activity (Stellaria media; herbicide A solo 25 g ai/ha) was 20% and the herbicidal activity (Stellaria media; herbicide A solo 50 g ai/ha) was 20%. The herbicidal activity (Stellaria media; herbicide A solo 62.5 g ai/ha) was 45%, the herbicidal activity (Digitaria sanguinalis; herbicide A solo 62.5 g ai/ha) was 60% and the herbicidal activity (Digitaria sanguinalis; herbicide A solo 125 g ai/ha) was 65%. It also gave a herbicidal activity (Digitaria sanguinalis; herbicide A solo 250 g ai/ha) of 80%, a herbicidal activity (Geranium dissectum [3]) of 75% and a herbicidal activity (Setaria viridis [4]; herbicide A solo 62.5 g ai/ha) of 40%. It also gave a herbicidal activity (Setaria viridis [4]; herbicide A solo 125 g ai/ha) of 60%.
